Results as given in patent US8697641B2, “4-amino-4-oxobutanoyl peptide cyclic analogues, inhibitors of viral replication” (Achillion Pharmaceuticals, Inc., priority 2008, dated 2014).

test system: Hepatitis C replicon; assay: HCV replicon assay (NPT ELISA readout) in Huh-7 replicon-containing cells; assay type: cell-based, Hepatitis C virus; conditions: HCV replicon in Huh-7 cells, three days incubation
In short: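 Huh-7 cells carrying a neo-containing HCV subgenomic replicon (NS3-NS5B) were plated overnight, then exposed to compound (generally 6 concentrations, 10 to 0.03 μM) for three days at 37 °C. Replication was read as NPT level by captured ELISA; interferon alpha served as positive control.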

Row | SMILES | EC50 [nM]
1 | COc1ccc2c(O[C@@H]3C[C@H]4C(=O)N[C@H](C(=O)NS(=O)(=O)C5CC5)CCCCCCCCC[C@H](CC(=O)N5CCCCC5)C(=O)N4C3)cc(-c3ccccc3)nc2c1 [Compound 52, (3S,13R,17R,18aS)-N-(cyclopropylsulfonyl)-17-(7-methoxy-2-phenylquinolin-4-yloxy)-1,14-dioxo-13-(2-oxo-2-(piperidin-1-yl)ethyl) octadecahydropyrrolo [1,2-a][1,4] diazacyclohexadecine-3-carboxamide] | 1000 to 10000
2 | COc1ccc2c(O[C@@H]3C[C@H]4C(=O)N[C@]5(C(=O)NS(=O)(=O)C6CC6)C[C@H]5CCCCCCC[C@H](CC(=O)N5CCCCC5)C(=O)N4C3)cc(-c3ccccc3)nc2c1 [Compound 51, (2R,6R,13aR, 14aR,16aS)-N-(cyclopropylsulfonyl)-2-(7-methoxy-2-phenylquinolin-4-yloxy)-5,16-dioxo-6-(2-oxo-2-(piperidin-1-yl)ethyl) octadecahydrocyclopropa [e]pyrrolo[1,2-a][1,4] diazacyclopentadecine-14a-carboxamide] | < 1000

same assay, conditions: Hepatitis C virus, 72 h; HCV replicon in Huh-7 cells, three days incubation

Row | SMILES | EC50 [nM]
3 | COc1ccc2c(O[C@@H]3C[C@H]4C(=O)N[C@]5(C(=O)NS(=O)(=O)C6CC6)C[C@H]5/C=C\CCCCC[C@H](CC(=O)N5CC[C@H](C(C)(C)N)C5)C(=O)N4C3)cc(-c3ccccc3)nc2c1 [Compound 111, (2R,6R,14aR,16aS,Z)-6-(2-((S)-3-(2-aminopropan-2-yl)pyrrolidin-1-yl)-2-oxoethyl)-N-(cyclopropylsulfonyl)-2-(7-methoxy-2-phenylquinolin-4-yloxy)-5,16-dioxo-1,2,3,5,6,7,8,9,10,11, 13a,14,14a,15,16,16a-hexadecahydrocyclopropa [e]pyrrolo[1,2-a][1,4] diazacyclopentadecine-14a-carboxamide] | < 1000
4 | COc1ccc2c(O[C@@H]3C[C@H]4C(=O)N[C@]5(C(=O)NS(=O)(=O)C6CC6)C[C@H]5/C=C\CCCCC[C@H](CC(=O)N5CC[C@H](O)C5)C(=O)N4C3)cc(-c3ccccc3)nc2c1 [Compound 108, (2R,6R,14aR,16aS,Z)-N-(cyclopropylsulfonyl)-6-(2-((S)-3-hydroxypyrrolidin-1-yl)-2-oxoethyl)-2-(7-methoxy-2-phenylquinolin-4-yloxy)-5,16-dioxo-1,2,3,5,6,7,8,9,10,11, 13a,14,14a,15,16,16a-hexadecahydrocyclopropa [e]pyrrolo[1,2-a][1,4] diazacyclopentadecine-14a-carboxamide] | < 1000
5 | COc1ccc2c(O[C@@H]3C[C@H]4C(=O)N[C@]5(C(=O)NS(=O)(=O)C6CC6)C[C@H]5/C=C\CCCCC[C@H](CC(=O)N5CCC(C(F)(F)F)CC5)C(=O)N4C3)cc(-c3csc(NC(C)C)n3)nc2c1C [Compound 121, (2R,6R,13aS,16aS,Z)-N-(cyclopropylsulfonyl)-2-(2-(2-(isopropylamino)thiazol-4-yl)-7-methoxy-8-methylquinolin-4-yloxy)-5,16-dioxo-6-(2-oxo-2-(4-(trifluoromethyl)piperidin-1-yl)ethyl)-1,2,3,5,6,7,8,9,10,11, 13a,14,14a,15,16,16a-hexadecahydrocyclopropa [e]pyrrolo[1,2-a][1,4] diazacyclopentadecine-14a-carboxamide] | < 1000
6 | COc1ccc2c(O[C@@H]3C[C@H]4C(=O)N[C@]5(C(=O)NS(=O)(=O)C6CC6)C[C@H]5/C=C\CCCCC[C@H](CC(=O)N5CCCC(F)(F)C5)C(=O)N4C3)nccc2c1Cl [Compound 123, (2R,6R,13aS,16aS, Z)-2-(5-chloro-6-methoxylsoquinolin-1-yloxy)-N-(cyclopropylsulfonyl)-6-(2-(3,3-difluoropiperidin-1-yl)-2-oxoethyl)-5,16-dioxo-1,2,3,5,6,7,8,9,10,11, 13a,14,14a,15,16,16a-hexadecahydrocyclopropa [e]pyrrolo[1,2-a][1,4] diazacyclopentadecine-14a-carboxamide] | > 10000
